Laboratory results from patent US20260184721A2, “FUSED RING COMPOUND, CONJUGATE THEREOF AND USE THEREOF” (Keymed Biosciences (Chengdu) Co., Ltd., priority 2022, published 2026).

Legend:
SK-BR-3 tumor cells = assay: In vitro proliferation inhibitory activity of compounds of Formula (GH) on SK-BR-3 tumor cells (CCK8); assay type: cell-based; settings: Homo sapiens, SK-BR-3, 72 h, 3 days of culture, read-out: IC50 for inhibiting proliferation of SK-BR-3 cells in vitro
Method: The objective of this experiment is to detect the in vitro killing activity of the compound of Formula (GH) of the present disclosure on SK-BR-3 tumor cells (human breast cancer cells, Wuhan Procell, Catalog No. CL-0211). The cells were treated with different concentrations of the compound in vitro. After 3 days of culture, the number of viable cells was detected using CCK8 (Cell Counting Kit-8, Catalog No. TS547) reagents, and the in vitro activity of the test compound was evaluated according to the IC50 value.
Taking the test method of in vitro killing activity on SK-BR-3 cells as an example, the following test was performed. […] After the cells were completely digested, 10 mL of cell culture medium containing 2% FBS was added to wash out the digested cells, centrifugation was performed at 300 g for 5 min, the supernatant was discarded, and then 10 to 20 mL of cell culture medium containing 2% FBS was added to resuspend the cells to prepare a single cell suspension. • (3) Cell plating: The SK-BR-3 single cell suspension was mixed well, the viable cell density was adjusted to 6×10^4 cells/mL with the cell culture medium containing 2% FBS, the cell suspension after density adjustment was mixed well, and added to a 96-well cell culture plate at 100 μL/well. Only 200 μL of PBS was added to the peripheral wells of the 96-well plate. The culture plate was incubated in an incubator for 24 hours (37° C., 5% CO2). • (4) Compound preparation: The compound was dissolved in DMSO (dimethyl sulfoxide, SIGMA) to prepare a 2 mM stock solution.
The starting concentrations of small molecule compounds and Dxd were both 600 nM, and the preparation method was as follows.
Then, 315 μL of different samples to be tested were added to the first column of a 96-well U-bottomed drug distribution plate, and the sample concentration was 1200 nM; 210 μL of the cell culture medium containing 2% FBS was added to each well of the second to tenth columns. 105 μL of the sample was taken from the first column and added to the 210 μL cell culture medium in the second column and mixed well, and 105 μL was taken and added to the third column, and so on to the tenth column. • (5) Sample loading operation: 100 μL of the sample to be tested of different concentrations was added to the culture plate, and two replicate wells were set for each sample. The culture plate was incubated in an incubator for 3 days (37° C., 5% CO2). • (6) Color development operation: The 96-well cell culture plate was taken out, the cell culture supernatant was removed by tapping, 100 μL of the RPMI 1640 basal medium (without FBS) containing 10% CCK8 was added, and then it was incubated in an incubator for about 1.5 hours (37° C., 5% CO2). • (7) Plate reading operation: The 96-well cell culture plate was taken out, placed in an ELISA reader (MD SpectraMax i3X), and A450 was determined by the ELISA reader. • (8) Data analysis: Microsoft Excel and Graphpad Prism 5 were used to process and analyze the data.

NCI-N87 tumor cells = assay: In vitro proliferation inhibitory activity of compounds of Formula (GH) on NCI-N87 tumor cells (CCK8); assay type: cell-based, human; settings: Homo sapiens, NCI-N87, […], read-out: IC50 for inhibiting proliferation of NCI-N87 cells in vitro
Method: The objective of this experiment is to detect the in vitro killing activity of the compound of Formula (GH) disclosed in the present invention on NCI-N87 tumor cells (human gastric cancer cells, Cell Resource Center, Institute of Basic Medicine, Chinese Academy of Medical Sciences, Catalog No. 3111C0001CCC000481). The cells were treated with different concentrations of the compound in vitro, and after 6 days of culture, the number of viable cells was detected using CCK8 (Cell Counting Kit-8, Catalog No. TS547) reagents, and the in vitro activity of the test compound was evaluated according to the IC50 value.
• (1) Cell culture: NCI-N87 cells were cultured in the RPMI 1640 medium containing 2% FBS (Shanghai BasalMedia Technologies Co., Ltd., Catalog No. L210KJ). • (2) Cell preparation: NCI-N87 cells in the logarithmic growth phase were taken, washed once with PBS (phosphate buffered saline, Shanghai BasalMedia Technologies Co., Ltd., Catalog No. E211004), added with 1 mL of trypsin (0.25% Trypsin-EDTA (1×), Shanghai BasalMedia Technologies Co., Ltd., Catalog No. A121002) to allow digestion for 2 to 3 minutes. After the cells were completely digested, 10 mL of the cell culture medium was added to wash off and obtain the digested cells, centrifugation was performed at 300 times gravitational acceleration (g) for 5 min, the supernatant was discarded, then 10 mL of PBS was added to wash the cells once, centrifugation was performed at 300 times gravitational acceleration (g) for 5 minutes, the supernatant was discarded, and 10 mL of the cell culture medium containing 2% FBS was added to resuspend the cells to prepare a single cell suspension. • (3) Cell plating: The NCI-N87 single cell suspension was mixed, the density of live cells was adjusted to 3×10^4 cells/mL with 2% FBS cell culture medium, the cell suspension after density adjustment was mixed well, and added to a 96-well cell culture plate at 100 μL/well. Only 200 μL of PBS was added to each of the peripheral wells of the 96-well plate. The plate was incubated in an incubator for 24 hours (37° C., 5% CO2). • (4) Preparation of sample to be tested:
The sample to be tested was diluted to 3200 nM with cell culture medium containing 2% FBS, then 300 μL of the sample was added to the first well of a 96-well U-bottomed plate with a sample concentration of 3200 nM; and 210 μL of cell culture medium containing 2% FBS was added to each well of the second to tenth columns. 70 μL of the sample was taken from the first column and added to the 210 μL cell culture medium in the second column and mixed well, 70 μL was taken and added to the third column, and so on to the ninth column. • (5) Sample loading operation: 100 μL of the sample to be tested with different concentrations was added to the culture plate, two replicate wells were set for each sample. The culture plate was incubated in an incubator for 6 days (37° C., 5% CO2). • (6) Color development operation: The 96-well cell culture plate was taken out, the supernatant of the culture medium was removed by tapping, 100 μL of 10% CCK8 (prepared with RPMI 1640 basal culture medium, without FBS) solution was added to each well, and incubation was performed in an incubator for 2 hours. • (7) Plate reading operation: The 96-well cell culture plate was taken out, placed in an ELISA reader (SpectraMax i3X), and A450 was determined by the ELISA reader. • (8) Data analysis: Microsoft Excel and Graphpad Prism 5 were used to process and analyze the data.

## Cc1c(F)cc2nc3c(c4c2c1CC[C@@H]4NC(=O)[C@@H](O)C1CC1)Cn1c-3cc2c(c1=O)COC(=O)[C@]2(O)CC1CC1 [Compound 4-A, (S)-2-Cyclopropyl-N-((1S,9S)-9-(cyclopropylmethyl)-5-fluoro-9-hydroxy-4-methyl-10,13-dioxo-2,3,9,10,13,15-hexahydro-1H,12H-benzo[de]pyrano[3′,4′:6,7]indolizino[1,2-b]quinolin-1-yl)-2-hydroxyacetamide]
SK-BR-3 tumor cells
  IC50: 6.42 nM
NCI-N87 tumor cells
  IC50: 2.4 nM

## Cc1c(F)cc2nc3c(c4c2c1CC[C@H]4NC(=O)[C@H](O)C1CC1)Cn1c-3cc2c(c1=O)COC(=O)[C@]2(O)CC1CC1 [Compound 5-B, (R)-2-Cyclopropyl-N-((1R,9S)-9-(cyclopropylmethyl)-5-fluoro-9-hydroxy-4-methyl-10,13-dioxo-2,3,9,10,13,15-hexahydro-1H,12H-benzo[de]pyrano[3′,4′:6,7]indolizino[1,2-b]quinolin-1-yl)-2-hydroxyacetamide]
SK-BR-3 tumor cells
  IC50: 4.92 nM
NCI-N87 tumor cells
  IC50: 2.96 nM

## CC[C@@]1(O)C(=O)OCc2c1cc1n(c2=O)Cc2c-1nc1cc(F)c3c(c1c2CNC(=O)[C@H](C)O)CCC3 [Compound 25, (S)-N-(((S)-8-Ethyl-4-fluoro-8-hydroxy-9,12-dioxo-2,3,8,9,12,14-hexahydro-1H,11H-cyclopenta[f]pyrano[3′,4′:6,7]indolizino[1,2-b]quinolin-15-yl)methyl)-2-hydroxypropanamide]
SK-BR-3 tumor cells
  IC50: 5.41 nM
NCI-N87 tumor cells
  IC50: 5.46 nM
